The numbers were not newly measured in patent US20090155392A1, “Methods and Systems for Sublingual Guarana Administration” (priority 2007, published 2009), which cites them from elsewhere.

The conditions of data set [1]: in vivo.
The conditions of data set [2]: versus other lithium salts (lithium carbonate, lithium citrate).

For `CS(C)(=O)=O` [MSM, Methylsulfonylmethane], in data set [1], the “homocysteine levels in blood” value is “statistically significant lower levels”; the “joint pain and stiffness” value is “significantly beneficial effect on joint pain and stiffness”.
With `COc1cc(CNC(=O)CCCC/C=C/C(C)C)ccc1O` [capsaicin, Capsaicin], the mean metabolic rate result (30 minutes and 60 minutes after taking the extract) is given as “significant increase”. Besides, for the setting “two week period”, the “subjects with reduced body fat” value was 70%.
Regarding `O=C([O-])c1cc(=O)[nH]c(=O)[nH]1.[Li+]` [lithium orotate, Lithium orotate], the “bio-activity relative to other lithium salts” value in data set [2] was 20 times.
